Measured values as given in patent publication US20230075368A1, “IDENTIFICATION OF AN EGFR-BIN3 PATHWAY THAT ACTIVELY SUPPRESSES INVASION AND REDUCES TUMOR SIZE IN GLIOBLASTOMA” (The United States Govemment as represented by the …, priority 2020, published 2023).

Legend:
betacellulin = assay: ELISA for BTC in supernatants; assay type: cell-based, human; details: tofacitinib 1 μM, 72 hours; GBM12 and GBM6
Description: Similar experiments were performed in GBM6 (FIG. 20D). […] Similar experiments were performed in GBM6 (FIG. 20F). […] The Western blot images are representative of three independent biological replicates. Actin served as loading control. Data are represented as mean±SEM from three independent experiments. * P<0.05, **P<0.01, *[…], unpaired two-tailed t-test.

GBM12, GBM6, and GBM22 = assay: Bromodeoxyuridine cell proliferation assay; assay type: cell-based, human; details: 48 hours
Description: Cell proliferation was assessed using the bromodeoxyuridine (BrdU) cell proliferation enzyme-linked immunosorbent assay kit (Abcam, Cambridge, United Kingdom) according to the manufacturer's instructions.

STAT3 = assay: Western blot of pSTAT3 and STAT3; assay type: cell-based, human; details: tofacitinib 1 μM, 24 hours; GBM12 and GBM6
Description: Mayo PDX cells were serum starved overnight. Following treatment for specific time, cells were harvested and lysed. The human glioblastoma tissues were ground in liquid nitrogen and then were lysed. […] TGFα antibody was from R&D system.
. . . […] A similar experiment was performed in GBM6 (FIG. 18F). […] The Western blot images are representative of three independent biological replicates. Actin served as loading control. Data are represented as mean±SEM from three independent experiments. *P<0.05, **P<0.01, ***P<0.001, unpaired two-tailed t-test.

EGR1 = EGR1 levels (qPCR, Western blot) and EGR1 promoter luciferase assay; assay type: cell-based, human
Description: Whole protein extracts from cells or tumor tissues were analyzed by western blot as previously described (Altieri et al. (2015) Surg. Technol. Int 27: 297-302). Mayo PDX cells were serum starved overnight. Following treatment for specific time, cells were harvested and lysed. The human glioblastoma tissues were ground in liquid nitrogen and then were lysed. EGFR (06-847) antibody was from Millipore. DOCK7 was from Proteintech (Rosemont, Ill.). pEGFR (2236), STAT3 (12640), pSTAT3 (9145), cdc42(4376), and RhoA (4695) antibodies were from Cell Signaling Technology (Danvers, Mass.). TGFα antibody was from R&D system. BIN3 (sc-514396) and (3-Actin (sc-47778) were from Santa Cruz Biotechnology (Dallas, Tex.).
Total RNA from cells was extracted by TRIzol Reagent (Ambion). First-strand cDNA and PCR was performed as described previously (Altieri et al. (2015) Surg. Technol. Int. 27: 297-302). The expression of each gene was normalized to GAPDH as a reference. The following primers were used. BIN3, 5′-[…]-3′ (SEQ ID NO:5) and 5′-[…]-3′ (SEQ ID NO:6); GAPDH, 5′-[…]-3′ (SEQ ID NO:7) and 5′-TGATG-[…]-3′ (SEQ ID NO:8).
Cells were plated in 48 well dishes to 70%-80% confluence followed by transfection with EGR1 promoter plasmid or empty plasmid using lipofectamine 2000. […] Firefly luciferase activity was measured in a luminometer and normalized on the basis of Renilla luciferase activity.

[1] = test system: orthotopic glioblastoma tumors (Mayo PDXs); assay: Orthotopic glioblastoma xenotransplant model treated with tofacitinib; assay type: in vivo, mice
Description: 4 to 6 weeks old female athymic nude mice were purchased from Charles River Laboratories. Mayo PDXs were injected into the right corpus striatum of the brains of 6-8 week-old nude mice using a stereotactic frame. […] Kaplan-Maier survival curves were calculated using GraphPad Prism 7.0 software. Alzet Osmotic pumps were installed for brain delivery of EGF or vehicle in tumor bearing mice. To monitor the mice with orthotropic xenografts, MRI was performed at the Mouse MRI Core, Advanced Imaging Research Center, at UT Southwestern.
Knockdown efficiency of HB-EGF in GBM39 control shRNA (GBM39shCtrl) and HB-EGF shRNA (GBM39shHB-EGF_1, GBM39shHB-EGF_2) clones was confirmed by ELISA (FIG. 21I). […] The Western blot images are representative of three independent biological replicates. Actin served as loading control. Scale bars: […]. Data are represented as mean±SEM from three independent experiments. ***P<0.001, […], n.s. not significant, unpaired two-tailed t-test.

HB-EGF = assay: ELISA for HB-EGF in supernatants; assay type: cell-based, human; details: tofacitinib 1 μM, 72 hours; GBM12 and GBM6
Description: To determine EGFR ligands in medium, cells were serum starved for 48 hours, supernatants were collected and concentrated 5- to 10-fold with Pierce protein concentrator (ThermoFisher). HB-EGF, TGFα and EGF protein concentration in supernatant and tumor tissue extracts was determined by ELISA using the corresponding commercial HB-EGF, TGFα and EGF protein detection kits (ThermoFisher) per the manufacturer's instructions.

glioma cells = details: Ramnarain et al. 2006, cited from earlier work
Mayo PDX cells = assay: Matrigel invasion assay; assay type: cell-based, human; details: low-dose EGF (5 ng/ml), 24 hours; GBM12 and GBM6
GBM12 and GBM6 cells = assay: Scratch-wound assay; assay type: cell-based, human; details: EGF 50 ng/ml, 24 hours
Description: Cells were cultured in 6 well plate until they reached around 100% confluence. A scratch wound was produced on the monolayer using a sterile 200 ul pipette tip. The cell cultured with serum free DMEM containing EGF (50 ng/ml) or vehicle control. Images of wound were captured 0 and 24 hours after scratch generation.
Referring to FIG. 4A-D, an analysis of glioma cell migration by in vitro scratch assays is shown. […] Data are represented as mean±SEM from three independent experiments. ** P<0.01, unpaired two-tailed t-test.

[2] = GBM12V tumors, tofacitinib 50 mg/kg, oral gavage
[3] = orthotopic GBM39 with HBEGF silenced, tofacitinib treated

| Molecule | upregulation of betacellulin (betacellulin) | proliferation (BrdU incorporation) (GBM12, GBM6, and GBM22; tofacitinib 1 μM) | phosphorylation of STAT3 (STAT3) | EGR1 levels and activity (EGR1; tofacitinib, Western blot 4 hours, luciferase 2 and 24 hours) | survival benefit ([1]; GBM12TGFα tumors, tofacitinib 50 mg/kg, oral gavage) | survival [1, 2] | tumor invasion (H&E, SMI-31) [1, 2] | infiltration of surrounding normal tissue ([1]; GBM12 or GBM6 orthotopic model, 40 mg/kg/day for 3 weeks) | survival ([1]; GBM12 or GBM6 orthotopic model, 40 mg/kg/day for 3 weeks, from one week after intracranial injection) | responsiveness of orthotopic tumors ([1]; GBM39 with HBEGF silenced vs. controls) | survival [1, 3] | tumor invasiveness [1, 3] | HB-EGF in supernatant (HB-EGF) | proliferation (BrdU incorporation) (GBM12, GBM6, and GBM22; EGF 50 ng/ml) | EGR1 mRNA, protein and transcriptional activity (EGR1; EGF 50 ng/ml, GBM12 and GBM6) | BIN3 gene upregulation when EGF is added (glioma cells; EGFR overexpressing glioma cells) | EGR1 gene induction with ligand-activated EGFR signaling (glioma cells) | cell invasion (Mayo PDX cells) | migration (scratch wound closure) (GBM12 and GBM6 cells) |
| --- | --- | --- | --- | --- | --- | --- | --- | --- | --- | --- | --- | --- | --- | --- | --- | --- | --- | --- | --- |
| C[C@@H]1CCN(C(=O)CC#N)C[C@@H]1N(C)c1ncnc2[nH]ccc12 [tofacitinib] | not found | induced proliferation | blocks phosphorylation | induces EGR1 levels and activity | no additional benefit | significant improvement in survival | decreased invasion | do not infiltrate the surrounding normal tissue | prolong survival | more responsive | improved | less invasive | upregulates | – | – | – | – | – | – |
| EGF: Recombinant human EGF (AF-100) from Peprotech; EGFR ligand | – | – | – | – | – | – | – | – | – | – | – | – | – | induces proliferation | upregulation of EGR1 was confirmed | 19.2 fold | 13.68 fold | suppressed invasion | suppressing migration |
